Experimental data published in PubChem BioAssay (NCI).
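Assay format: 96-well plates, 48-hour exposure. Abbreviation: GI50, concentration required for 50% inhibition of growth. TGI marks complete inhibition of growth.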

What was measured:
Assay in all cases: NCI-60 cell line screen, 48 h
786-0 renal = system: 786-0 renal
A498 renal = system: A498 renal
A549 NSCLC = system: A549 NSCLC
ACHN renal = system: ACHN renal
BT-549 breast = system: BT-549 breast
CAKI-1 renal = system: CAKI-1 renal
CCRF-CEM leukemia = system: CCRF-CEM leukemia
COLO 205 colon = system: COLO 205 colon
DU-145 prostate = system: DU-145 prostate
EKVX NSCLC = system: EKVX NSCLC
HCC-2998 colon = system: HCC-2998 colon
HCT-116 colon = system: HCT-116 colon
HCT-15 colon = system: HCT-15 colon
HL-60(TB) leukemia = system: HL-60(TB) leukemia
HOP-62 NSCLC = system: HOP-62 NSCLC
HOP-92 NSCLC = system: HOP-92 NSCLC
HS 578T breast = system: HS 578T breast
HT29 colon = system: HT29 colon
IGROV1 ovarian = system: IGROV1 ovarian
K-562 leukemia = system: K-562 leukemia
KM12 colon = system: KM12 colon
M14 melanoma = system: M14 melanoma
MALME-3M melanoma = system: MALME-3M melanoma
MCF7 breast = system: MCF7 breast
MDA-MB-231 breast = system: MDA-MB-231 breast
MDA-MB-435 = system: MDA-MB-435
MOLT-4 leukemia = system: MOLT-4 leukemia
NCI-H226 lung = system: NCI-H226 lung
NCI-H23 lung = system: NCI-H23 lung
NCI-H460 lung = system: NCI-H460 lung
NCI/ADR-RES ovarian = system: NCI/ADR-RES ovarian
OVCAR-3 ovarian = system: OVCAR-3 ovarian
OVCAR-4 ovarian = system: OVCAR-4 ovarian
OVCAR-5 ovarian = system: OVCAR-5 ovarian
OVCAR-8 ovarian = system: OVCAR-8 ovarian
PC-3 prostate = system: PC-3 prostate
RPMI-8226 leukemia = system: RPMI-8226 leukemia
RXF 393 renal = system: RXF 393 renal
SF-268 CNS = system: SF-268 CNS
SF-295 CNS = system: SF-295 CNS
SF-539 CNS = system: SF-539 CNS
SK-MEL-2 melanoma = system: SK-MEL-2 melanoma
SK-MEL-28 melanoma = system: SK-MEL-28 melanoma
SK-MEL-5 melanoma = system: SK-MEL-5 melanoma
SK-OV-3 ovarian = system: SK-OV-3 ovarian
SN12C renal = system: SN12C renal
SNB-19 CNS = system: SNB-19 CNS
SNB-75 CNS = system: SNB-75 CNS
SR leukemia = system: SR leukemia
SW-620 colon = system: SW-620 colon
T-47D breast = system: T-47D breast
TK-10 renal = system: TK-10 renal
U251 CNS = system: U251 CNS
UACC-257 melanoma = system: UACC-257 melanoma
UACC-62 melanoma = system: UACC-62 melanoma
UO-31 renal = system: UO-31 renal

For `C#C[C@]1(O)CC[C@H]2[C@@H]3CC=C4c5sc(Nc6cc(C)cc(C)c6)nc5CC[C@]4(C)[C@H]3CC[C@@]21C`, the GI50 (786-0 renal) was 0.429 µM, the TGI (786-0 renal) was 2.28 µM and the GI50 (A498 renal) was 0.791 µM. The TGI (A498 renal) was 2.98 µM, the GI50 (A549 NSCLC) was 4.08 µM and the TGI (A549 NSCLC) was 28.5 µM. The GI50 (ACHN renal) was 3.72 µM, the TGI (ACHN renal) was 20.5 µM and the GI50 (BT-549 breast) was 0.556 µM. It also gave a TGI (BT-549 breast) of 5.82 µM, a GI50 (CAKI-1 renal) of 2.69 µM and a TGI (CAKI-1 renal) of 15 µM. For the same molecule, the GI50 (CCRF-CEM leukemia) was 1.7 µM, the TGI (CCRF-CEM leukemia) was 8.43 µM and the GI50 (COLO 205 colon) was 2.42 µM. It also gave a TGI (COLO 205 colon) of 5.9 µM, a GI50 (DU-145 prostate) of 4.18 µM and a TGI (DU-145 prostate) of 21.8 µM. It also gave a GI50 (EKVX NSCLC) of 3.12 µM, a TGI (EKVX NSCLC) of 31.3 µM and a GI50 (HCC-2998 colon) of 5.47 µM. For the same molecule, the TGI (HCC-2998 colon) was 23 µM, the GI50 (HCT-116 colon) was 1.98 µM and the TGI (HCT-116 colon) was 10.1 µM. For the same molecule, the GI50 (HCT-15 colon) was 1.88 µM, the TGI (HCT-15 colon) was 5.58 µM and the GI50 (HL-60(TB) leukemia) was 1.29 µM. For the same molecule, the TGI (HL-60(TB) leukemia) was 5.55 µM, the GI50 (HOP-62 NSCLC) was 2.55 µM and the TGI (HOP-62 NSCLC) was 20.1 µM. It also gave a GI50 (HOP-92 NSCLC) of 3.17 µM, a TGI (HOP-92 NSCLC) of 13.6 µM and a GI50 (HS 578T breast) of 0.526 µM. The TGI (HS 578T breast) was 5.89 µM, the GI50 (HT29 colon) was 1.65 µM and the TGI (HT29 colon) was 4.32 µM. It also gave a GI50 (IGROV1 ovarian) of 4.85 µM, a TGI (IGROV1 ovarian) of 60.6 µM and a GI50 (K-562 leukemia) of 1.58 µM. For the same molecule, the TGI (K-562 leukemia) was 4.33 µM, the GI50 (KM12 colon) was 2.6 µM and the TGI (KM12 colon) was 8.05 µM. For the same molecule, the GI50 (M14 melanoma) was 1.58 µM, the TGI (M14 melanoma) was 6.87 µM and the GI50 (MALME-3M melanoma) was 1.87 µM. The TGI (MALME-3M melanoma) was 5.6 µM, the GI50 (MCF7 breast) was 1.61 µM and the TGI (MCF7 breast) was 6.22 µM. It also gave a GI50 (MDA-MB-231 breast) of 2.96 µM, a TGI (MDA-MB-231 breast) of 15.1 µM and a GI50 (MDA-MB-435) of 2.83 µM. For the same molecule, the TGI (MDA-MB-435) was 12.4 µM, the GI50 (MOLT-4 leukemia) was 0.555 µM and the TGI (MOLT-4 leukemia) was 5.83 µM. The GI50 (NCI-H226 lung) was 2.29 µM, the TGI (NCI-H226 lung) was 7.99 µM and the GI50 (NCI-H23 lung) was 2.87 µM. The TGI (NCI-H23 lung) was 17 µM, the GI50 (NCI-H460 lung) was 2.72 µM and the TGI (NCI-H460 lung) was 13 µM. The GI50 (NCI/ADR-RES ovarian) was 4.86 µM, the TGI (NCI/ADR-RES ovarian) was 45.5 µM and the GI50 (OVCAR-3 ovarian) was 3.59 µM. The TGI (OVCAR-3 ovarian) was 16.9 µM, the GI50 (OVCAR-4 ovarian) was 4.63 µM and the TGI (OVCAR-4 ovarian) was greater than 100 µM. The GI50 (OVCAR-5 ovarian) was 3.69 µM, the TGI (OVCAR-5 ovarian) was 15.8 µM and the GI50 (OVCAR-8 ovarian) was 7.08 µM. It also gave a TGI (OVCAR-8 ovarian) greater than 100 µM, a GI50 (PC-3 prostate) of 1.53 µM and a TGI (PC-3 prostate) of 11.9 µM. It also gave a GI50 (RPMI-8226 leukemia) of 0.272 µM, a TGI (RPMI-8226 leukemia) of 0.823 µM and a GI50 (RXF 393 renal) of 0.142 µM. It also gave a TGI (RXF 393 renal) of 0.428 µM, a GI50 (SF-268 CNS) of 2.54 µM and a TGI (SF-268 CNS) of 20.2 µM. It also gave a GI50 (SF-295 CNS) of 0.297 µM, a TGI (SF-295 CNS) of 0.966 µM and a GI50 (SF-539 CNS) of 0.392 µM. The TGI (SF-539 CNS) was 1.71 µM, the GI50 (SK-MEL-2 melanoma) was 1.46 µM and the TGI (SK-MEL-2 melanoma) was 10.3 µM. It also gave a GI50 (SK-MEL-28 melanoma) of 1.07 µM, a TGI (SK-MEL-28 melanoma) of 2.95 µM and a GI50 (SK-MEL-5 melanoma) of 1.65 µM. For the same molecule, the TGI (SK-MEL-5 melanoma) was 3.15 µM, the GI50 (SK-OV-3 ovarian) was 2.23 µM and the TGI (SK-OV-3 ovarian) was 7.94 µM. The GI50 (SN12C renal) was 8.38 µM, the TGI (SN12C renal) was 30.5 µM and the GI50 (SNB-19 CNS) was 2 µM. The TGI (SNB-19 CNS) was 11.6 µM, the GI50 (SNB-75 CNS) was 0.547 µM and the TGI (SNB-75 CNS) was 7.91 µM. The GI50 (SR leukemia) was 1.17 µM, the TGI (SR leukemia) was 5.88 µM and the GI50 (SW-620 colon) was 2.12 µM. It also gave a TGI (SW-620 colon) of 4.89 µM, a GI50 (T-47D breast) of 3.4 µM and a TGI (T-47D breast) of 85.8 µM. For the same molecule, the GI50 (TK-10 renal) was 9.87 µM, the TGI (TK-10 renal) was 36.5 µM and the GI50 (U251 CNS) was 1.09 µM. It also gave a TGI (U251 CNS) of 18.4 µM, a GI50 (UACC-257 melanoma) of 3.07 µM and a TGI (UACC-257 melanoma) of 21.7 µM. For the same molecule, the GI50 (UACC-62 melanoma) was 1.69 µM, the TGI (UACC-62 melanoma) was 4.1 µM and the GI50 (UO-31 renal) was 2.72 µM. For the same molecule, the TGI (UO-31 renal) was 9.7 µM.
